Assay results as given in patent US6303630A, “Diarylsulfone non-nucleoside reverse transcriptase inhibitors of human immunodeficiency virus” (University of the Sciences in Philadelphia, priority 2000, dated 2001).
Where two headings read alike, the source gives them in different places.

Legend:
[1] = system: HIV-1 reverse transcriptase; details: McMahon et al. 1993; cited from earlier work
HIV-1 [2] = details: in vitro, McMahon et al. 1993; cited from earlier work
HIV-1 [3] = details: Artico et al. 1995; cited from earlier work
HIV-1 [4] = assay: NCI in vitro anti-HIV drug screen: XTT-formazan assay, protection of T4 lymphocytes (CEM) from HIV-1 cytopathic effects; format: cell-based, human immunodeficiency virus (HIV-1); details: for EC50: 144 h, HIV-1 infected CEM cells, 6 days, XTT, approximate values, read-out: EC50 (50% effective concentration against HIV cytopathic effects); for inhibition at 200 µM / activity at 200 µM: dose 2.00 × 10^-4 Molar; for inhibition at 2 µM / activity at 2 µM: dose 2.00 × 10^-6 Molar; for inhibition at 0.2 µM / activity at 0.2 µM: dose 2.00 × 10^-7 Molar; for TI50 (IC/EC), Therapeutic Index: IC50/EC50
In short: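 CEM T4 lymphocytes with serial half-log10 compound dilutions were infected with HIV-1 and incubated 6 days at 37° in 5% CO2. Cell protection from cytolysis was quantified by XTT formazan absorbance, with microscopic confirmation, against uninfected drug-treated toxicity controls.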

[5] = system: T4 lymphocytes (CEM cell line); assay: Cell growth / toxicity control in uninfected T4 lymphocytes (CEM), XTT-formazan; format: cell-based; details: Homo sapiens, CCRF-CEM; for IC50: 144 h, approximate values; for activity at 200 µM: dose 2.00 × 10^-4 Molar; for activity at 20 µM: dose 2.00 × 10^-5 Molar; for activity at 2 µM: dose 2.00 × 10^-6 Molar; for activity at 0.2 µM: dose 2.00 × 10^-7 Molar; for activity at 6.33 µM: dose 6.33 × 10^-6 Molar; for activity at 0.634 µM: dose 6.34 × 10^-7 Molar; for activity at 0.0635 µM: dose 6.35 × 10^-8 Molar
In short: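 Uninfected CEM T4 lymphocytes received compound in half-log10 dilutions (1:200 final dilution of DMSO solution) as toxicity control alongside HIV-1-infected cultures. After 6 days at 37° in 5% CO2, viability was quantified by XTT formazan absorbance plus microscopy.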

[6] = Human immunodeficiency virus 1, CCRF-CEM
[7] = Human immunodeficiency virus 1, CCRF-CEM, read-out: Percent of Protection
[8] = Human immunodeficiency virus 1, Lymphocyte, read-out: Percent of Control, Infected
[9] = Human immunodeficiency virus 1, Lymphocyte, dose 2.00 × 10^-5 Molar, read-out: Percent of Control, Infected
[10] = Human immunodeficiency virus 1, Lymphocyte, dose 6.33 × 10^-6 Molar, read-out: Percent of Control, Infected
[11] = Human immunodeficiency virus 1, Lymphocyte, dose 6.34 × 10^-7 Molar, read-out: Percent of Control, Infected
[12] = Human immunodeficiency virus 1, Lymphocyte, dose 6.35 × 10^-8 Molar, read-out: Percent of Control, Infected
[13] = read-out: Percent of Control, Uninfected

| SMILES | EC50 (HIV-1 [4]; [6]) [µM] | inhibition at 200 µM (HIV-1 [4]; [7]) [%] | inhibition at 2 µM (HIV-1 [4]; [7]) [%] | inhibition at 0.2 µM (HIV-1 [4]; [7]) [%] | activity at 200 µM (HIV-1 [4]; [8]) [%] | activity at 20 µM (HIV-1 [4]; [9]) [%] | activity at 2 µM (HIV-1 [4]; [8]) [%] | activity at 0.2 µM (HIV-1 [4]; [8]) [%] | activity at 6.33 µM (HIV-1 [4]; [10]) [%] | activity at 0.634 µM (HIV-1 [4]; [11]) [%] | activity at 0.0635 µM (HIV-1 [4]; [12]) [%] | TI50 (IC/EC), Therapeutic Index (HIV-1 [4]) | activity at 200 µM [5, 13] [%] | activity at 20 µM [5, 13] [%] | activity at 2 µM [5, 13] [%] | activity at 0.2 µM [5, 13] [%] | activity at 6.33 µM [5, 13] [%] | activity at 0.634 µM [5, 13] [%] | activity at 0.0635 µM [5, 13] [%] | other results |
| --- | --- | --- | --- | --- | --- | --- | --- | --- | --- | --- | --- | --- | --- | --- | --- | --- | --- | --- | --- | --- |
| O=[N+]([O-])c1ccccc1S(=O)(=O)c1ccccc1 [2-nitrophenyl phenylsulfone] |  |  |  |  |  |  |  |  |  |  |  |  |  |  |  |  |  |  |  | inhibition of HIV-1 replication via inhibition of HIV-1 reverse transcriptase [1]: inhibition of HIV-1 replication via inhibition of HIV-1 reverse transcriptase; protecting human cells in culture from HIV-1 cytopathic effects / preventing HIV-1 replication (HIV-1 [2]): high efficacy |
| CCOC(=O)c1cccn1S(=O)(=O)c1ccccc1[N+](=O)[O-] |  |  |  |  |  |  |  |  |  |  |  |  |  |  |  |  |  |  |  | anti-HIV-1 efficacy (HIV-1 [3]): the most efficacy |
| CNc1ccc(S(=O)(=O)c2ccccc2[N+](=O)[O-])cc1C [Compound 79, 4-(2-nitrophenyisulfonyl)-N,2-dimethylaniline] | 0.183 | 10.7 | 97 | 53.9 | 15.2 | 79.7 | 97.2 | 56.2 | 103 | 66.8 | 12.5 | 1.79 × 10^-2 | 11.9 | 76.9 | 94 | 97.1 | 98.2 | 93 | 107 | inhibition at 20 µM (HIV-1 [4]; Human immunodeficiency virus 1, CCRF-CEM, dose 2.00 × 10^-5 Molar, read-out: Percent of Protection): 78.6%; inhibition at 63.2 µM (HIV-1 [4]; Human immunodeficiency virus 1, CCRF-CEM, dose 6.32 × 10^-5 Molar, read-out: Percent of Protection): 10.1%; inhibition at 6.33 µM (HIV-1 [4]; Human immunodeficiency virus 1, CCRF-CEM, dose 6.33 × 10^-6 Molar, read-out: Percent of Protection): 103%; inhibition at 0.0635 µM (HIV-1 [4]; Human immunodeficiency virus 1, CCRF-CEM, dose 6.35 × 10^-8 Molar, read-out: Percent of Protection): 7.87%; inhibition at 0.634 µM (HIV-1 [4]; Human immunodeficiency virus 1, CCRF-CEM, read-out: Percent of Protection, dose 6.34 × 10^-7 Molar): 65%; activity at 63.2 µM (HIV-1 [4]; Human immunodeficiency virus 1, Lymphocyte, dose 6.32 × 10^-5 Molar, read-out: Percent of Control, Infected): 14.6%; IC50 ([5]; uninfected CEM cells, 6 days, XTT, read-out: IC50 (50% inhibitory concentration for cell growth)): 32.7 µM; activity at 63.2 µM ([5]; dose 6.32 × 10^-5 Molar, read-out: Percent of Control, Uninfected): 13.9% |
| CN(c1ccccc1)S(=O)(=O)c1cccc([N+](=O)[O-])c1 [Compound 14, N-(3-nitrophenylsulfonyl)-N-methylaniline] | 42.5 | 5.28 | -6.93 | -10.9 | 17.6 | 9.75 | 6.97 | 3.54 | 16.4 | 1.34 | 3.37 | 3.34 × 10^0 | 41.5 | 83.8 | 87.2 | 93.2 | 81.3 | 87.8 | 94.8 | inhibition at 63.3 µM (HIV-1 [4]; Human immunodeficiency virus 1, CCRF-CEM, dose 6.33 × 10^-5 Molar, read-out: Percent of Protection): 78.3%; inhibition at 0.634 µM (HIV-1 [4]; Human immunodeficiency virus 1, CCRF-CEM, dose 6.34 × 10^-7 Molar, read-out: Percent of Protection): -13.4%; inhibition at 20 µM (HIV-1 [4]; Human immunodeficiency virus 1, CCRF-CEM, read-out: Percent of Protection, dose 2.00 × 10^-5 Molar): -3.74%; inhibition at 6.33 µM (HIV-1 [4]; Human immunodeficiency virus 1, CCRF-CEM, read-out: Percent of Protection, dose 6.33 × 10^-6 Molar): -3.87%; inhibition at 0.0635 µM (HIV-1 [4]; Human immunodeficiency virus 1, CCRF-CEM, read-out: Percent of Protection, dose 6.35 × 10^-8 Molar): -11.1%; activity at 63.3 µM (HIV-1 [4]; Human immunodeficiency virus 1, Lymphocyte, dose 6.33 × 10^-5 Molar, read-out: Percent of Control, Infected): 81.1%; IC50 ([5]; read-out: IC50 (50% inhibitory concentration for cell growth), uninfected CEM cells, 6 days, XTT): 142 µM; activity at 63.3 µM ([5]; dose 6.33 × 10^-5 Molar, read-out: Percent of Control, Uninfected): 70.2% |
